Tests used:
Fusarium culmorum [1] = test: whole plant or invertebrate; assay type: in vivo, Fusarium culmorum on wheat spikelets cv. Monsun; details: in Triticum aestivum, read-out: control of Fusarium culmorum
[2] = test system: Magnaporthe grisea (Pyricularia oryzae); test: microbe, parasite or virus in culture; assay type: cell-based; details: read-out: control of Magnaporthe grisea
[3] = test system: Mycosphaerella graminicola (Septoria tritici); test: Mycosphaerella graminicola (Septoria tritici) / liquid culture (Septoria blotch); assay type: cell-based; details: Zymoseptoria tritici, growth inhibition photometrically 4-5 days after application, vs untreated control
Method: Mycosphaerella graminicola (Septoria tritici)/Liquid Culture (Septoria Blotch)
(§1) Conidia of the fungus from cryogenic storage are directly mixed into nutrient broth (PDB potato dextrose broth). After placing a (DMSO) solution of test compound into a microtiter plate (96-well format), the nutrient broth containing the fungal spores is added. The test plates are incubated at 24° C. and the inhibition of growth is determined photometrically 4-5 days after application.

[4] = test system: Magnaporthe grisea (Pyricularia oryzae); test: whole plant or invertebrate; assay type: in vivo, Magnaporthe grisea on rice leaf segments cv. Ballila; details: foliar, read-out: control of Magnaporthe grisea
[5] = test system: Botryotinia fuckeliana (Botrytis cinerea); test: Botryotinia fuckeliana (Botrytis cinerea) / liquid culture (gray mould); assay type: cell-based; details: growth inhibition photometrically 3-4 days after application, vs untreated control
Method: Botryotinia fuckeliana (Botrytis cinerea)/Liquid Culture (Gray Mould)
as §1, with “(Vogels” for “(PDB potato dextrose”, “3-4” for “4-5”

[6] = test system: Glomerella lagenarium (Colletotrichum lagenarium); test: Glomerella lagenarium (Colletotrichum lagenarium) / liquid culture (anthracnose); assay type: cell-based; details: Colletotrichum orbiculare, growth inhibition photometrically 3-4 days after application, vs untreated control
Method: as §1, with “measured” for “determined”, “3-4” for “4-5”

Sclerotinia sclerotiorum = Sclerotinia sclerotiorum / liquid culture (cottony rot); assay type: cell-based; details: growth inhibition photometrically 3-4 days after application, vs untreated control
Method: Sclerotinia sclerotiorum/Liquid Culture (Cottony Rot)
as §1, with “Mycelia fragments of a newly grown liquid culture” for “Conidia”, “fungus” for “fungus from cryogenic storage”, “(Vogels” for “(PDB potato dextrose”, “format)” for “format),”, “material” for “spores”, “3-4” for “4-5”

Fusarium culmorum [7] = test: microbe, parasite or virus in culture; assay type: cell-based; details: read-out: control of Fusarium culmorum
[8] = test system: Monographella nivalis (Microdochium nivale); test: Monographella nivalis (Microdochium nivale) / liquid culture (foot rot cereals); assay type: cell-based; details: growth inhibition photometrically 4-5 days after application, vs untreated control
Method: Monographella nivalis (Microdochium nivale)/Liquid Culture (Foot Rot Cereals)
as §1

Molecule CC(C)CC(F)(Cc1ccccc1)C(=O)Nc1cnc2c(F)cccc2c1 (stereo not drawn) [Compound E-1] has a pest or weed control at 200 ppm (Fusarium culmorum [1]) of no less than 80%, an inhibition of growth at 200 ppm [2] of no less than 80% and an inhibition of growth at 200 ppm [3] of no less than 80%. It also gave a pest or weed control at 200 ppm [4] of no less than 80%.

Cc1c(NC(=O)C(Cc2ccccc2)CC2(C)CC2)cnc2c(F)cccc12 (stereo not drawn) [Compound E-90, 2-benzyl-N-(8-fluoro-4-methyl-3-quinolyl)-3-(1-methylcyclopropyl)propanamide] gave an inhibition of growth at 200 ppm [5] of no less than 80%, an inhibition of growth at 200 ppm [6] of no less than 80% and an inhibition of growth at 20 ppm (Sclerotinia sclerotiorum) of no less than 80%. For the same molecule, the pest or weed control at 200 ppm (Fusarium culmorum [1]) was no less than 80%, the inhibition of growth at 200 ppm (Fusarium culmorum [7]) was no less than 80% and the inhibition of growth at 200 ppm [2] was no less than 80%. For the same molecule, the pest or weed control at 200 ppm [4] was no less than 80%, the melting point was 144 to 146 °C and the inhibition of growth at 200 ppm [8] was no less than 80%.

Molecule C=C(Cl)C[C@H](Cc1ccccc1)C(=O)Nc1cnc2c(F)cccc2c1C [Compound F-28, (2S)-2-benzyl-4-chloro-N-(8-fluoro-4-methyl-3-quinolyl)pent-4-enamide] has an inhibition of growth at 200 ppm [5] of no less than 80%, an inhibition of growth at 200 ppm [6] of no less than 80% and an inhibition of growth at 20 ppm (Sclerotinia sclerotiorum) of no less than 80%. It also gave an inhibition of growth at 200 ppm (Fusarium culmorum [7]) of no less than 80%, an inhibition of growth at 200 ppm [2] of no less than 80% and an inhibition of growth at 200 ppm [8] of no less than 80%.

In the case of Cc1nc2c(F)cccc2cc1NC(=O)C(Cc1ccccc1)CC1(C)CC1 (stereo not drawn) [Compound E-89, 2-benzyl-N-(8-fluoro-2-methyl-3-quinolyl)-3-(1-methylcyclopropyl)propanamide], the inhibition of growth at 200 ppm [5] is reported as no less than 80%, the inhibition of growth at 200 ppm [6] is reported as no less than 80% and the inhibition of growth at 20 ppm (Sclerotinia sclerotiorum) is reported as no less than 80%. The pest or weed control at 200 ppm (Fusarium culmorum [1]) was no less than 80%, the inhibition of growth at 200 ppm (Fusarium culmorum [7]) was no less than 80% and the inhibition of growth at 200 ppm [2] was no less than 80%. It also gave a pest or weed control at 200 ppm [4] of no less than 80%, a melting point of 162 to 163 °C and an inhibition of growth at 200 ppm [8] of no less than 80%.

With C=C(C)CC(Cc1ccccc1)C(=O)Nc1cc2cccc(F)c2nc1C (stereo not drawn) [Compound E-92, 2-benzyl-N-(8-fluoro-2-methyl-3-quinolyl)-4-methyl-pent-4-enamide] the pest or weed control at 200 ppm (Fusarium culmorum [1]) was no less than 80%, the inhibition of growth at 200 ppm [2] was no less than 80% and the inhibition of growth at 200 ppm [3] was no less than 80%. The melting point was 97 to 99 °C.

Work on Cc1c(NC(=O)C(Cc2ccccc2)CC(C)(C)C)cnc2c(F)cccc12 (stereo not drawn) [Compound E-96, 2-benzyl-N-(8-fluoro-4-methyl-3-quinolyl)-4,4-dimethyl-pentanamide] yielded an inhibition of growth at 200 ppm [5] of no less than 80%, an inhibition of growth at 200 ppm [6] of no less than 80% and an inhibition of growth at 20 ppm (Sclerotinia sclerotiorum) of no less than 80%. The pest or weed control at 200 ppm (Fusarium culmorum [1]) was no less than 80%, the inhibition of growth at 200 ppm (Fusarium culmorum [7]) was no less than 80% and the inhibition of growth at 200 ppm [2] was no less than 80%. For the same molecule, the pest or weed control at 200 ppm [4] was no less than 80%, the melting point was 135 to 136 °C and the inhibition of growth at 200 ppm [8] was no less than 80%.

For C=C(C)CC(Cc1ccccc1)C(=O)Nc1cnc2c(F)cccc2c1C (stereo not drawn) [Compound E-93, 2-benzyl-N-(8-fluoro-4-methyl-3-quinolyl)-4-methyl-pent-4-enamide], the inhibition of growth at 20 ppm (Sclerotinia sclerotiorum) was no less than 80%, the inhibition of growth at 200 ppm [2] was no less than 80% and the inhibition of growth at 200 ppm [3] was no less than 80%. The pest or weed control at 200 ppm [4] was no less than 80% and the melting point was 116 to 118 °C.

Molecule Cc1nc2c(F)cccc2cc1NC(=O)[C@@H](Cc1ccccc1)CC(C)(C)C [Compound F-34, (2R)-2-benzyl-N-(8-fluoro-2-methyl-3-quinolyl)-4,4-dimethyl-pentanamide] has an inhibition of growth at 200 ppm [5] of no less than 80%, an inhibition of growth at 200 ppm [6] of no less than 80% and an inhibition of growth at 20 ppm (Sclerotinia sclerotiorum) of no less than 80%. The pest or weed control at 200 ppm (Fusarium culmorum [1]) was no less than 80%, the inhibition of growth at 200 ppm (Fusarium culmorum [7]) was no less than 80% and the inhibition of growth at 200 ppm [2] was no less than 80%. The pest or weed control at 200 ppm [4] was no less than 80% and the inhibition of growth at 200 ppm [8] was no less than 80%.

Work on C=C(Cl)CC(Cc1ccccc1)C(=O)Nc1cc2cccc(F)c2nc1C (stereo not drawn) [Compound E-4, 2-benzyl-4-chloro-N-(8-fluoro-2-methyl-3-quinolyl)pent-4-enamide] yielded an inhibition of growth at 200 ppm [2] of no less than 80%, an inhibition of growth at 200 ppm [3] of no less than 80% and a melting point of 96 to 99 °C.

C=C(Cl)C[C@@](C)(Cc1ccccc1)C(=O)Nc1cnc2c(F)cccc2c1C [Compound F-42, (2R)-2-benzyl-4-chloro-N-(8-fluoro-4-methyl-3-quinolyl)-2-methyl-pent-4-enamide] gave an inhibition of growth at 200 ppm [5] of no less than 80%, an inhibition of growth at 200 ppm [6] of no less than 80% and an inhibition of growth at 20 ppm (Sclerotinia sclerotiorum) of no less than 80%. It also gave a pest or weed control at 200 ppm (Fusarium culmorum [1]) of no less than 80%, an inhibition of growth at 200 ppm (Fusarium culmorum [7]) of no less than 80% and an inhibition of growth at 200 ppm [2] of no less than 80%. It also gave a pest or weed control at 200 ppm [4] of no less than 80% and an inhibition of growth at 200 ppm [8] of no less than 80%.

CC1(CC(Cc2ccccc2)C(=O)Nc2cnc3c(F)cccc3c2)CC1 (stereo not drawn) [Compound E-91, 2-benzyl-N-(8-fluoro-3-quinolyl)-3-(1-methylcyclopropyl)propanamide] gave an inhibition of growth at 200 ppm [5] of no less than 80%, an inhibition of growth at 200 ppm [6] of no less than 80% and an inhibition of growth at 20 ppm (Sclerotinia sclerotiorum) of no less than 80%. The pest or weed control at 200 ppm (Fusarium culmorum [1]) was no less than 80%, the inhibition of growth at 200 ppm (Fusarium culmorum [7]) was no less than 80% and the inhibition of growth at 200 ppm [2] was no less than 80%. For the same molecule, the pest or weed control at 200 ppm [4] was no less than 80%, the melting point was 135 to 136 °C and the inhibition of growth at 200 ppm [8] was no less than 80%.

With C=C(Cl)C[C@](C)(Cc1ccccc1)C(=O)Nc1cc2cccc(F)c2nc1C [Compound F-44, (2S)-2-benzyl-4-chloro-N-(8-fluoro-2-methyl-3-quinolyl)-2-methyl-pent-4-enamide] the inhibition of growth at 200 ppm [5] was no less than 80%, the inhibition of growth at 200 ppm [6] was no less than 80% and the inhibition of growth at 20 ppm (Sclerotinia sclerotiorum) was no less than 80%. For the same molecule, the pest or weed control at 200 ppm (Fusarium culmorum [1]) was no less than 80%, the inhibition of growth at 200 ppm (Fusarium culmorum [7]) was no less than 80% and the inhibition of growth at 200 ppm [2] was no less than 80%. The pest or weed control at 200 ppm [4] was no less than 80% and the inhibition of growth at 200 ppm [8] was no less than 80%.

For Cc1c(NC(=O)[C@H](Cc2ccccc2)CC(C)(C)C)cnc2c(F)cccc12 [Compound F-35, (2S)-2-benzyl-N-(8-fluoro-4-methyl-3-quinolyl)-4,4-dimethyl-pentanamide], the inhibition of growth at 200 ppm [5] was no less than 80%, the inhibition of growth at 200 ppm [6] was no less than 80% and the pest or weed control at 200 ppm (Fusarium culmorum [1]) was no less than 80%. The inhibition of growth at 200 ppm (Fusarium culmorum [7]) was no less than 80%, the inhibition of growth at 200 ppm [2] was no less than 80% and the pest or weed control at 200 ppm [4] was no less than 80%. It also gave an inhibition of growth at 200 ppm [8] of no less than 80%.

Cc1nc2c(F)cccc2cc1NC(=O)C(Cc1ccccc1)CC(C)(C)C (stereo not drawn) [Compound E-97, 2-benzyl-N-(8-fluoro-2-methyl-3-quinolyl)-4,4-dimethyl-pentanamide] showed an inhibition of growth at 200 ppm [5] of no less than 80%, an inhibition of growth at 200 ppm [6] of no less than 80% and a pest or weed control at 200 ppm (Fusarium culmorum [1]) of no less than 80%. The inhibition of growth at 200 ppm (Fusarium culmorum [7]) was no less than 80%, the inhibition of growth at 200 ppm [2] was no less than 80% and the pest or weed control at 200 ppm [4] was no less than 80%. For the same molecule, the inhibition of growth at 200 ppm [8] was no less than 80%.

For Cc1nc2c(F)cccc2cc1NC(=O)[C@@H](Cc1ccccc1)CC1(C)CC1 [Compound F-38, (2R)-2-benzyl-N-(8-fluoro-2-methyl-3-quinolyl)-3-(1-methylcyclopropyl)propanamide], the inhibition of growth at 200 ppm [5] was no less than 80%, the inhibition of growth at 200 ppm [6] was no less than 80% and the inhibition of growth at 20 ppm (Sclerotinia sclerotiorum) was no less than 80%. It also gave a pest or weed control at 200 ppm (Fusarium culmorum [1]) of no less than 80%, an inhibition of growth at 200 ppm (Fusarium culmorum [7]) of no less than 80% and an inhibition of growth at 200 ppm [2] of no less than 80%. It also gave an inhibition of growth at 200 ppm [8] of no less than 80%.

With Cc1c(NC(=O)[C@@H](Cc2ccccc2)CC(C)(C)C)cnc2c(F)cccc12 [Compound F-36, (2R)-2-benzyl-N-(8-fluoro-4-methyl-3-quinolyl)-4,4-dimethyl-pentanamide] the inhibition of growth at 200 ppm [5] was no less than 80%, the inhibition of growth at 200 ppm [6] was no less than 80% and the inhibition of growth at 20 ppm (Sclerotinia sclerotiorum) was no less than 80%. It also gave a pest or weed control at 200 ppm (Fusarium culmorum [1]) of no less than 80%, an inhibition of growth at 200 ppm (Fusarium culmorum [7]) of no less than 80% and an inhibition of growth at 200 ppm [2] of no less than 80%. The pest or weed control at 200 ppm [4] was no less than 80% and the inhibition of growth at 200 ppm [8] was no less than 80%.
